Test results published in patent publication US8574831B2, “Mutational profiles in HIV-1 reverse transcriptase correlated with phenotypic drug resistance” (Virco N.V., priority 2000, dated 2013).

Tests used:
[1] = system: HIV with mutations in the reverse transcriptase gene sequence; assay: Phenotypic fold resistance to reverse transcriptase inhibitors, RT mutations at positions 101, 103, 181, 190 (Examples 4-7); assay type: cell-based, HIV-1
Experimental: As is the case with the genotyping assays, the recombinant virus assay starts with the amplification of viral target sequences by means of PCR. The amplicons are incorporated into a proviral laboratory clone with sequences homologous to those present in the amplicon deleted. This generates a stock of chimeric viruses. The viruses are tested for their ability to grow in the presence of different concentrations of drugs. Results are obtained by calculating IC50 values for each inhibitor and by reporting the results as IC50 values, expressed in μM concentrations, or by computing the ratio of the IC50 values found for the chimeric virus to the IC50 values found for a wild type susceptible laboratory virus tested in parallel. In the latter case, resistance is expressed as “fold-resistance” compared to a wild-type susceptible HIV-1 strain. In order to meet the need for high-volume testing and a short turn-around time for an individual test, the latest generation of phenotyping assays has undergone further modifications. The use of reporter gene systems for susceptibility testing allows the implementation of laboratory automation and standardization. See Pauwels, et al., J. Virol. Methods 20, 309-321 (1998); Paulous, S., et al., International Workshop on HIV Drug Resistance, Treatment Strategies and Eradication, St. Petersburg, Fla., USA. Abstr. 46 (1997); and Deeks, S. G., et al., 2nd International Workshop on HIV Drug Resistance and Treatment Strategies, Lake Maggiore, Italy. Abstr. 53 (1998).
The methods of monitoring HIV-1 drug resistance, may also be used in combination with phenotypic drug resistance testing of viral isolates. For example, in one embodiment, a phenotypic test is utilized that is based upon the construction of chimeric HIV-1 strains composed of the protease (PR) and reverse transcriptase (RT) gene sequences which are isolated and amplified from the patient viral RNA. These strains may subsequently be recombined inside CD4+ T cells with a standard laboratory isogenic (HXB2) HIV-1 DNA construct from which the PR/RT gene sequences were deleted. The recombinant strains may then be grown in the presence of the above-mentioned antiviral drugs and the susceptibility of the viral isolates may be expressed as fold-change value of the IC50 of the drug on the patient isolates over the IC50 of the drug on a wild-type laboratory reference strain.
(§1) Overview of the mean fold increase in resistance and the effect of the 101 mutations in the HIV reverse transcriptase gene sequence. The fold increase in resistance is calculated from the increase in the mean IC50 of the drug relative to the mean IC50 of the same drug for a wild-type reference laboratory HIV-1 strain. The effect of the mutations was investigated on Nevirapine, Delavirdine and Efavirenz.
as §1, with “103” for “101”, “strain.” for “strain. The effect of the mutations was investigated on Nevirapine, Delavirdine and Efavirenz.”
as §1, with “181” for “101”, “strain.” for “strain. The effect of the mutations was investigated on Nevirapine, Delavirdine and Efavirenz.”
as §1, with “190” for “101”, “strain.” for “strain. The effect of the mutations was investigated on Nevirapine, Delavirdine and Efavirenz.”

[2] = system: HIV-1 HXB2-D variants with site-directed RT mutations; assay: MT-4 cell CPE protection assay, HIV-1 variants constructed by site-directed mutagenesis (Example 2); assay type: cell-based
Experimental: Mutations in the RT coding region were created by site-directed mutagenesis of a wild-type HXB2-D EcoRl-Pstl restriction enzyme fragment, encompassing the HIV-1 pol gene and cloned into pGEM3 (Promega). Single and multiple nucleotide changes were introduced into RT using the EXSITE™ mutagenesis kit (Strategene). All mutant clones were verified by DNA sequence analysis of the entire RT. PCR fragments were prepared from the mutated clones and the altered RT coding regions were transferred into the HIV-1 HXB2-D genetic background by homologous recombination as described above. The susceptibility of these recombinant viruses to nucleoside analogues was subsequently determined by the MT-4 cell CPE protection assay. Id.

| Compound | fold increase in resistance compared to a laboratory reference strain (WT) ([1]; RT genotype 101E) | fold increase in resistance compared to a laboratory reference strain (WT) ([1]; RT genotype 101H) | fold increase in resistance compared to a laboratory reference strain (WT) ([1]; RT genotype 101P) | fold increase in resistance compared to a laboratory reference strain (WT) ([1]; RT genotype 101Q) | mean fold increase in resistance compared to a laboratory reference strain (WT) ([1]; RT genotype 103H) | mean fold increase in resistance compared to a laboratory reference strain (WT) ([1]; RT genotype 103N) | mean fold increase in resistance compared to a laboratory reference strain (WT) ([1]; RT genotype 103R) | mean fold increase in resistance compared to a laboratory reference strain (WT) ([1]; RT genotype 103S) | mean fold increase in resistance compared to a laboratory reference strain (WT) ([1]; RT genotype 103T) | fold increase in resistance compared to a laboratory reference strain (WT) ([1]; RT genotype 181C) | fold increase in resistance compared to a laboratory reference strain (WT) ([1]; RT genotype 181I) | fold increase in resistance compared to a laboratory reference strain (WT) ([1]; RT genotype 181S) | fold increase in resistance compared to a laboratory reference strain (WT) ([1]; RT genotype 190A) | fold increase in resistance compared to a laboratory reference strain (WT) ([1]; RT genotype 190E) | fold increase in resistance compared to a laboratory reference strain (WT) ([1]; RT genotype 190Q) | fold increase in resistance compared to a laboratory reference strain (WT) ([1]; RT genotype 190S) | fold increase in resistance compared to a laboratory reference strain (WT) ([1]; RT genotype WT (Table 5)) | mean fold increase in resistance compared to a laboratory reference strain (WT) ([1]; RT genotype WT (Table 6)) | fold increase in resistance compared to a laboratory reference strain (WT) ([1]; RT genotype WT (Table 7)) | fold increase in resistance compared to a laboratory reference strain (WT) ([1]; RT genotype WT (Table 8)) | further results |
| --- | --- | --- | --- | --- | --- | --- | --- | --- | --- | --- | --- | --- | --- | --- | --- | --- | --- | --- | --- | --- | --- |
| CC(C)Nc1cccnc1N1CCN(C(=O)c2cc3cc(NS(C)(=O)=O)ccc3[nH]2)CC1 [Delavirdine, delavirdine] | 7.7 fold | 45.5 fold | 162.4 fold | 1.2 fold | 191.6 fold | 176.1 fold | 1.6 fold | 18.3 fold | 84.5 fold | 82.5 fold | 81.7 fold | 147.9 fold | 2.3 fold | 131.1 fold | 34.0 fold | 1.9 fold | 1.8 fold | 1.8 fold | 1.8 fold | 1.8 fold |  |
| O=C1Nc2ccc(Cl)cc2[C@@](C#CC2CC2)(C(F)(F)F)O1 [Efavirenz, efavirenz] | 2.4 fold | 3.5 fold | 84.2 fold | 0.9 fold | 52.7 fold | 486.8 fold | 0.6 fold | 8.4 fold | 2.8 fold | 2.0 fold | 2.0 fold | 8.7 fold | 24.8 fold | 385.3 fold | 401.1 fold | 483.6 fold | 0.9 fold | 0.9 fold | 0.9 fold | 0.9 fold |  |
| Cc1ccnc2c1NC(=O)c1cccnc1N2C1CC1 [Nevirapine, nevirapine] | 4.9 fold | 24.0 fold | 53.4 fold | 1.9 fold | 69.4 fold | 48.1 fold | 1.1 fold | 45.4 fold | 43.7 fold | 56.0 fold | 63.8 fold | 82.8 fold | 60.7 fold | 40.0 fold | 52.7 fold | 75.9 fold | 1.3 fold | 1.3 fold | 1.3 fold | 1.3 fold |  |
| Nc1nc(NC2CC2)c2ncn([C@H]3C=C[C@@H](CO)C3)c2n1 [abacavir, 4-[(2-amino-6-cyclopropyl-amino)-9H-purin-9-yl]-2-cyclopentene-1-methanol] |  |  |  |  |  |  |  |  |  |  |  |  |  |  |  |  |  |  |  |  | susceptibility ([2]; 69S-[S-S] insert plus AZT resistance mutations (210W and 215Y)): decreased susceptibility |
| O=c1[nH]cnc2c1ncn2[C@H]1CC[C@@H](CO)O1 [ddl, didanosine] |  |  |  |  |  |  |  |  |  |  |  |  |  |  |  |  |  |  |  |  | resistance ([2]; T69A or V75M in a background of AZT mutations): little or no resistance |
